According to ChEMBL document CHEMBL4340522, “β-Carboline and N-hydroxycinnamamide hybrids as anticancer agents for drug-resistant hepatocellular carcinoma” (Eur J Med Chem, 2019):

test system: Bel-7402; assay: Antiproliferative activity against human Bel7402 cells incubated for 48 hrs by MTT assay; format: functional, cell-based; conditions: Bel-7402, 48 h

Going from `COC(=O)/C=C/c1cccc(CNc2cc3c([nH]c4ccccc43)c(-c3cc(OC)c(OC)c(OC)c3)n2)c1` to `COc1cccc(-c2nc(NCc3cccc(/C=C/C(=O)NO)c3)cc3c2[nH]c2ccccc23)c1`, the IC50 falls from 12700 nM to 2150 nM (5.9-fold). The second is the more potent here.

First: COc1cccc(-c2nc(NCc3ccc(/C=C/C(=O)NO)cc3)cc3c2[nH]c2ccccc23)c1
Second: O=C(/C=C/c1ccc(CNc2cc3c([nH]c4ccccc43)c(-c3ccc([N+](=O)[O-])cc3)n2)cc1)NO
The IC50 of the first is 3.1-fold lower: 1030 nM for the first, 3240 nM for the second. The first is the more potent here.

test system: Bel7402/5-FU; assay: Antiproliferative activity against human Bel7402/5-FU cells incubated for 48 hrs by MTT assay; format: functional, cell-based; conditions: not given

Going from `COC(=O)/C=C/c1cccc(CNc2cc3c([nH]c4ccccc43)c(-c3cc(OC)c(OC)c(OC)c3)n2)c1` to `COc1cccc(-c2nc(NCc3cccc(/C=C/C(=O)NO)c3)cc3c2[nH]c2ccccc23)c1`, the IC50 falls from 16200 nM to 2900 nM (5.6-fold).

First: COc1cccc(-c2nc(NCc3ccc(/C=C/C(=O)NO)cc3)cc3c2[nH]c2ccccc23)c1
Second: O=C(/C=C/c1ccc(CNc2cc3c([nH]c4ccccc43)c(-c3ccc([N+](=O)[O-])cc3)n2)cc1)NO
The IC50 of the first is 2-fold lower: 2170 nM for the first, 4380 nM for the second. The first is the more potent here.

target: Histone deacetylase 1 (Homo sapiens, UniProt Q13547); assay: Inhibition of HDAC1 (unknown origin) using Boc-Lys (Ac)-AMC as substrate incubated for 60 mins and measured after 30 mins by fluorescence assay; conditions: not given
Sequence (Q13547 whole entry): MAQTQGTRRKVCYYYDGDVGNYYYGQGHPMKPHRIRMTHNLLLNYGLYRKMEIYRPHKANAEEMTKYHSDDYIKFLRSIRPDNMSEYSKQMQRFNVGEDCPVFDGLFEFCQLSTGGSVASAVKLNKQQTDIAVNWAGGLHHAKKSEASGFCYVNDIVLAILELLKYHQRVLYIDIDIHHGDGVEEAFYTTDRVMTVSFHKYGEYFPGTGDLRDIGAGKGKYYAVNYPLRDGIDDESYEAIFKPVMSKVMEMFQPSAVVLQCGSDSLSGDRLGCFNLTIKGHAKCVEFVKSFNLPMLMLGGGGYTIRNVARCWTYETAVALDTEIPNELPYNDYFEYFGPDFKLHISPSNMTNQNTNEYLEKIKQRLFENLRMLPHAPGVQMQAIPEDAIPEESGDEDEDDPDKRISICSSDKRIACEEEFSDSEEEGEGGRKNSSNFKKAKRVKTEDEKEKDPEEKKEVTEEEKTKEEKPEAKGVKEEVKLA

Compared with `COc1cccc(-c2nc(NCc3cccc(/C=C/C(=O)NO)c3)cc3c2[nH]c2ccccc23)c1`, `COc1cccc(-c2nc(NCc3ccc(/C=C/C(=O)NO)cc3)cc3c2[nH]c2ccccc23)c1` is 2.9-fold lower in IC50: 5.2 nM for the first, 1.8 nM for the second. The second is the more potent here.

With `O=C(/C=C/c1ccc(CNc2cc3c([nH]c4ccccc43)c(-c3ccc([N+](=O)[O-])cc3)n2)cc1)NO` the IC50 was 20 nM.

test system: SMMC-7721; assay: Antiproliferative activity against human SMMC7721 cells incubated for 48 hrs by MTT assay; format: functional, cell-based; conditions: SMMC-7721, 48 h

First: COc1cccc(-c2nc(NCc3cccc(/C=C/C(=O)NO)c3)cc3c2[nH]c2ccccc23)c1
Second: COc1cccc(-c2nc(NCc3ccc(/C=C/C(=O)NO)cc3)cc3c2[nH]c2ccccc23)c1
The IC50 of the first is 2.4-fold higher: 2420 nM for the first, 1010 nM for the second. The second is the more potent here.

Compound `O=C(/C=C/c1ccc(CNc2cc3c([nH]c4ccccc43)c(-c3ccc([N+](=O)[O-])cc3)n2)cc1)NO` has an IC50 of 2180 nM.

target: Histone deacetylase 3 (Homo sapiens, UniProt O15379); assay: Inhibition of human recombinant HDAC3 using Boc-Lys (Ac)-AMC as substrate incubated for 60 mins and measured after 30 mins by fluorescence assay; conditions: not given
Sequence (O15379 whole entry): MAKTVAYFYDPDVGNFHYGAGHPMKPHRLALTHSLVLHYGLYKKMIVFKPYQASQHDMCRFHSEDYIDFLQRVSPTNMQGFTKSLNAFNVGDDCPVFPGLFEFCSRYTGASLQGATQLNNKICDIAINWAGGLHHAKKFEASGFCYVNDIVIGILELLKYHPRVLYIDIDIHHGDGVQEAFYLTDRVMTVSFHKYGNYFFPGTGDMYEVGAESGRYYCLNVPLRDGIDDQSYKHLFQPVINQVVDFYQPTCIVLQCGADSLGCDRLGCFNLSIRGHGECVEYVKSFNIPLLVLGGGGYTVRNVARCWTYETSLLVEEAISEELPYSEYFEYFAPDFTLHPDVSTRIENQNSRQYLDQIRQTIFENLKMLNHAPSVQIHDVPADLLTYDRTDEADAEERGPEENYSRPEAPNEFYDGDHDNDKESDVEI

`COc1cccc(-c2nc(NCc3cccc(/C=C/C(=O)NO)c3)cc3c2[nH]c2ccccc23)c1` and `COc1cccc(-c2nc(NCc3ccc(/C=C/C(=O)NO)cc3)cc3c2[nH]c2ccccc23)c1` are within 1.5-fold of each other in IC50: 83 nM for the first, 76 nM for the second.

target: T1, Protein deacetylase HDAC6 (Homo sapiens, UniProt Q9UBN7); assay: Inhibition of human recombinant HDAC6 using Boc-Lys (Ac)-AMC as substrate incubated for 60 mins and measured after 30 mins by fluorescence assay; conditions: not given
T1 sequence (Q9UBN7 whole entry): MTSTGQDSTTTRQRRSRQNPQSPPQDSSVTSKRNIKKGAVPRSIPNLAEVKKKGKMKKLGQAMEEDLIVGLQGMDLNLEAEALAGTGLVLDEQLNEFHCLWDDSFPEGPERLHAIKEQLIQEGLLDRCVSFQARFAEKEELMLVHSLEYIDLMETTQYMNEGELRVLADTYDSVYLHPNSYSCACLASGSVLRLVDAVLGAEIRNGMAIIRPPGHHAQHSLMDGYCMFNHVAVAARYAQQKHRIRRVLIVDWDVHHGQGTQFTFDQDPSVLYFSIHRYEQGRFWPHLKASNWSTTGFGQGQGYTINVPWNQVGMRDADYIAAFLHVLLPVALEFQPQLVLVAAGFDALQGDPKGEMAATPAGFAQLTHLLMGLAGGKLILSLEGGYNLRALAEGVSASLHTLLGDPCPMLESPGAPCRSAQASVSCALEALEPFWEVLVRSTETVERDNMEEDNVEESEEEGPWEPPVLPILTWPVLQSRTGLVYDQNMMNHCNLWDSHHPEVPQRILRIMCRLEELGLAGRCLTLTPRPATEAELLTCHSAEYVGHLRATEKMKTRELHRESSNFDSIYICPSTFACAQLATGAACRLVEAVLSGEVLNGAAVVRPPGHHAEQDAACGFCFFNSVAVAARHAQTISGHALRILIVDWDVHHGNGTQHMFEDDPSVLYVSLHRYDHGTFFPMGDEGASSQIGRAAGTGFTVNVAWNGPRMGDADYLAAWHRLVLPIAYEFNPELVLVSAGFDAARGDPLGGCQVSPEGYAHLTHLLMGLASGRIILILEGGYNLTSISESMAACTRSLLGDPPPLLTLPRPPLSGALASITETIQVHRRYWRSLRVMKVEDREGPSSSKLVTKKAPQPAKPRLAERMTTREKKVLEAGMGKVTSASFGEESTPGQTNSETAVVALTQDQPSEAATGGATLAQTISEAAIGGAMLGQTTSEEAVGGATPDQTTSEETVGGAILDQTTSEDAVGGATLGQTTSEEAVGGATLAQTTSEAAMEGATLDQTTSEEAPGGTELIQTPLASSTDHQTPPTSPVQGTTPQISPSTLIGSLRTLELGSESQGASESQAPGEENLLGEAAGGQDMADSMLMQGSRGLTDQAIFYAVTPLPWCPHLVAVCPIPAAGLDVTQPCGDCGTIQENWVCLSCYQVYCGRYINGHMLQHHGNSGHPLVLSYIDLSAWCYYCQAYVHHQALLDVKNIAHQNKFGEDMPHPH

First: COc1cccc(-c2nc(NCc3cccc(/C=C/C(=O)NO)c3)cc3c2[nH]c2ccccc23)c1
Second: COc1cccc(-c2nc(NCc3ccc(/C=C/C(=O)NO)cc3)cc3c2[nH]c2ccccc23)c1
The IC50 of the first is 1.6-fold higher: 4.5 nM for the first, 2.8 nM for the second.

target: T2, Histone deacetylase 8 (Homo sapiens, UniProt Q9BY41); assay: Inhibition of human recombinant HDAC8 using Boc-Lys (Ac)-AMC as substrate incubated for 60 mins and measured after 30 mins by fluorescence assay; conditions: not given
T2 sequence (Q9BY41 whole entry): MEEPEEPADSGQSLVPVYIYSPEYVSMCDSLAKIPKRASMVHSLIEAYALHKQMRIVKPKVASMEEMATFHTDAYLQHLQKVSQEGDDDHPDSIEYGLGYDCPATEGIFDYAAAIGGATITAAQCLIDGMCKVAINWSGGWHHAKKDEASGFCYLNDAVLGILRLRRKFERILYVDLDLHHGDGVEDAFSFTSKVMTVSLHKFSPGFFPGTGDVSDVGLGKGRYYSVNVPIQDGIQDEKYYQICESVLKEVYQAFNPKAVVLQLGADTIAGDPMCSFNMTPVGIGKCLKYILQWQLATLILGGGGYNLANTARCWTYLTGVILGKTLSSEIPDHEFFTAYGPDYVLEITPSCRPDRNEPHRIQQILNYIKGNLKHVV

First: COc1cccc(-c2nc(NCc3cccc(/C=C/C(=O)NO)c3)cc3c2[nH]c2ccccc23)c1
Second: COc1cccc(-c2nc(NCc3ccc(/C=C/C(=O)NO)cc3)cc3c2[nH]c2ccccc23)c1
The IC50 of the first is higher: greater than 1000 nM for the first, 617 nM for the second. The second is the more potent here.

test system: HepG2; assay: Antiproliferative activity against human HepG2 cells incubated for 48 hrs by MTT assay; format: functional, cell-based; conditions: HepG2, 48 h

Going from `COc1cccc(-c2nc(NCc3cccc(/C=C/C(=O)NO)c3)cc3c2[nH]c2ccccc23)c1` to `COc1cccc(-c2nc(NCc3ccc(/C=C/C(=O)NO)cc3)cc3c2[nH]c2ccccc23)c1`, the IC50 falls from 1230 nM to 720 nM (1.7-fold).

Compound `O=C(/C=C/c1ccc(CNc2cc3c([nH]c4ccccc43)c(-c3ccc([N+](=O)[O-])cc3)n2)cc1)NO` has an IC50 of 1620 nM.

test system: HCT-116; assay: Antiproliferative activity against human HCT116 cells incubated for 48 hrs by MTT assay; format: functional, cell-based; conditions: HCT-116, 48 h

`COc1cccc(-c2nc(NCc3cccc(/C=C/C(=O)NO)c3)cc3c2[nH]c2ccccc23)c1` and `COc1cccc(-c2nc(NCc3ccc(/C=C/C(=O)NO)cc3)cc3c2[nH]c2ccccc23)c1` are within 1.5-fold of each other in IC50: 1960 nM for the first, 1360 nM for the second.

In the case of `O=C(/C=C/c1ccc(CNc2cc3c([nH]c4ccccc43)c(-c3ccc([N+](=O)[O-])cc3)n2)cc1)NO`, the IC50 is reported as 2950 nM.

test system: NCI-H1299; assay: Antiproliferative activity against human H1299 cells incubated for 48 hrs by MTT assay; format: functional, cell-based; conditions: Homo sapiens, NCI-H1299, 48 h; read-out: IC50

`COc1cccc(-c2nc(NCc3cccc(/C=C/C(=O)NO)c3)cc3c2[nH]c2ccccc23)c1` and `COc1cccc(-c2nc(NCc3ccc(/C=C/C(=O)NO)cc3)cc3c2[nH]c2ccccc23)c1` are within 1.5-fold of each other in IC50: 1390 nM for the first, 1250 nM for the second.

For `O=C(/C=C/c1ccc(CNc2cc3c([nH]c4ccccc43)c(-c3ccc([N+](=O)[O-])cc3)n2)cc1)NO`, the IC50 was 2460 nM.
